“Also recorded” adds a separate entry of the source. Read-outs that look alike come from different tables or passages of the source.
Tests used:
LM cells = assay: Tritium assay in LM cells; type: cell-based; settings: read-out: IC50 tritium assay
Method: (§1) Stock solutions of drugs were prepared in absolute ethanol. L1210 cells were suspended in fisher's medium, LM and LM (TK-) cells were suspended in minimum essential medium to give a final density of 11.24×10^6 cells/mL. Aliquots ([…]) of the cell suspension were placed in ependorf tubes, followed by addition of 5 mL of drug solution and incubated at 37° C. for 2 hours. Tritium release reaction was started by the addition of […] of serum free media containing 1 mCi [5-^3H]dCyt in a 0.5 mM dCyt solution. Allowed reaction to incubate for 60 min in a shaking water bath at 37° C. Reaction was terminated by transferring 100 mL of the reaction mixture to ependorf tubes containing 100 mL of a 20% mixture of activated charcoal suspension in 4% aqueous perchloric acid. Tubes were vigorously vortexed, then centrifuged in a microfuge. Radioactivity of […] of the supernatant was measured using a scintillation spectrometer. The data were analyzed by sigmoidal curve fit of CMP vs. Log (drug concentration) and the results expressed as the IC50 (the drug concentration that inhibits cell growth to 50% of control value).

L1210 leukemia cells = assay: Growth inhibition in L1210 mouse leukemia cells; type: cell-based
Method: In an alternate embodiment of the invention, the analogous thymidine compounds were prepared (i.e., 3 where F═CH3). The thymidine phosphoramidate was activated by reduction of the nitrofuryl group with sodium dithionite in aqueous buffer/acetonitrile at 37° C., and the reaction was monitored by ^31P nmr. Within ten minutes the resonance for the phosphoramidate anion had disappeared and a new peak corresponding to thymidine-5′-phosphate appeared as the exclusive phosphorus-containing product by ^31P nmr. Nucleoside phosphoramidate 3 was then evaluated for its ability to inhibit proliferation of L1210 leukemia cells in vitro. Cells were exposed to drug for 2, 8, 24, and 48 hours; the results are summarized below:
Stock solutions of drugs were prepared in absolute ethanol, and serial dilutions of drug were prepared in ethanol. L1210 cells were suspended in Fisher's medium supplemented with 10% horse serum, 1% glutamine, and 1% antibiotic-antimycotic solution to give 10 mL volumes of cell suspension at a final density of 3-6×10^4 cells/mL. Appropriate volumes of the drug solution were transferred to the cell suspensions, and incubation was continued for 2, 8, 24, or 48 hours. The cells were spun down, resuspended in fresh drug-free medium and returned to the incubator. Final cell counts were determined 48 hours after the start of drug treatment. The data were analyzed by sigmoidal curve fit of cell count vs. Log (drug concentration) and the results expressed as the IC50 (the drug concentration that inhibits cell growth to 50% of control value).

L1210 cells = assay: Tritium assay in L1210 cells; type: cell-based; settings: Mus musculus
Method: as §1

LM(TK-) cells = assay: Tritium assay in LM(TK-) cells; type: cell-based; settings: L-M(TK-), read-out: IC50 tritium assay
Method: as §1

pp60src SH2 domain = pp60src SH2 domain (Homo sapiens, UniProt P12931); assay: Binding to pp60src SH2 domain; settings: read-out: binding affinity
pp60src SH2 domain, sequence (P12931 151-248 limits assumed): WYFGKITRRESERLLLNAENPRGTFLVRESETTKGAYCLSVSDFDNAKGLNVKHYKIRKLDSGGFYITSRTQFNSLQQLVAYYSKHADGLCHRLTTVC
From the text: An alternate embodiment of the invention is illustrated in scheme 3: [drawing 3] This reaction is directed toward the synthesis of phosphoramidate 11A and involved the preparation of the nitrofuryl phosphoramidate of p-hydroxybenzoic acid 9A and coupling of this product with the benzyl amine 10A, prepared from 5-acetylsalicylamide. Briefly, to synthesize the benzoic acid derivative 9A, p-Hydroxybenzoic acid was converted to its allyl ester 6A by reaction of the potassium salt with allylbromide. The allyl ester was reacted with POCl3 and the intermediate phosphoryl dichloride was treated with methyl chlorobutylamine in the presence of triethylamine to give phosphoramidic chloride 7A. Reaction of 7A with the lithium salt of 5-nitro-2-hydroxymethylfuran afforded the phosphoramidate 8A. Deprotection of the allyl ester was accomplished by reaction with Pd(Ph3P)4/sodium p-toluenesulfinate to give the benzoic acid phosphoramidate 9A. Reaction of 9A with isobutyl chloroformate in the presence of triethylamine, followed by addition of benzylamine 10A afforded the desired peptidomimetic prodrug 11A. In order to confirm that the activation chemistry of 11A to 12A would proceed as expected, 11A was reduced with sodium dithionite in ethanol/aqueous buffer and the reaction monitored by ^31P nmr. […]

[1] = system: luciferase expression in J77 cells transfected with NF-AT-Luciferase plasmid; assay: Luciferase inhibition on transfected J77 cells; type: cell-based; settings: read-out: IC50 luciferase inhibition
Method: J77 cells (2×10^7 cells in […] of FBS-free RPMI media) were transfected with […] of NF-AT-Luciferase plasmid. Cells were transferred to a flask with 10 mL of complete RPMI media and incubated for 24 hours. After this time cells were spun down, resuspended in 12 mL of complete RPMI media and divided into a 6-well well plate (2 mL/well). Drug stock solutions in DMSO were made and each well was treated with a different concentration and incubated for 2 hours. Each well was then treated with 10 mL of a mixture of 1.25 mg of PMA and 9 mg of Ionomycin in 115 mL of FBS-free RPMI, followed by the addition of 2 mg of Anti-CD3. Cells were incubated for 6 hours, spun down, washed with PBS, lysed for 15 min and centrifuged. Supernantant was collected and stored at −78° C. overnight. Luciferase activity was measured using a luminometer with a mixture of 50 mL of luciferase substrate and 10 ml of supernatant.

[2] = Chemical activation by sodium dithionite reduction monitored by 31P nmr; type: physicochemical; settings: sodium dithionite in aqueous buffer/acetonitrile at 37° C.
[3] = Mus musculus, L1210, 2 h, read-out: L1210 IC50, drug exposure 2 hr, comparison of compound 5 with compound 3
[4] = Mus musculus, L1210, 8 h, read-out: L1210 IC50, drug exposure 8 hr, comparison of compound 5 with compound 3
[5] = Mus musculus, L1210, 24 h, read-out: L1210 IC50, drug exposure 24 hr, comparison of compound 5 with compound 3
[6] = Mus musculus, L1210, 48 h, drug exposure 48 h, final cell counts 48 hours after start of drug treatment
[7] = Mus musculus, L1210, 48 h, read-out: L1210 IC50, drug exposure 48 hr, comparison of compound 5 with compound 3
[8] = Mus musculus, L1210, drug exposure 2 h, final cell counts 48 hours after start of drug treatment
[9] = Mus musculus, L1210, drug exposure 8 h, final cell counts 48 hours after start of drug treatment
[10] = Mus musculus, L1210, drug exposure 24 h, final cell counts 48 hours after start of drug treatment

With CN(CCCCCl)P(=O)(OCc1ccc([N+](=O)[O-])o1)OC[C@H]1O[C@@H](n2cc(F)c(=O)[nH]c2=O)CC1O (some centres unmarked) [Compound 3, 5-Fluoro-2′-deoxyuridyl 5-nitrofurfuryl N-methyl-N-(4-chlorobutyl)phosphoramidate] the IC50 (LM cells) was 711 nM, the “inhibition of L1210 cell proliferation, in words” value (L1210 leukemia cells) was “significantly more potent than the analogous bromoethyl compound; also recorded: highly potent inhibitors” and the IC50 (L1210 leukemia cells; Mus musculus, L1210, 2 h, read-out: L1210 IC50, drug exposure 2 hr) was 112 nM. For the same molecule, the IC50 (L1210 leukemia cells; [3]) was 116 nM, the IC50 (L1210 leukemia cells; Mus musculus, L1210, 8 h, read-out: L1210 IC50, drug exposure 8 hr) was 40 nM and the IC50 (L1210 leukemia cells; [4]) was 47 nM. For the same molecule, the IC50 (L1210 leukemia cells; Mus musculus, L1210, 24 h, read-out: L1210 IC50, drug exposure 24 hr) was 6 nM, the IC50 (L1210 leukemia cells; [5]) was 7.2 nM and the IC50 (L1210 leukemia cells; [6]) was 2.3 nM. The IC50 (L1210 leukemia cells; Mus musculus, L1210, 48 h, read-out: L1210 IC50, drug exposure 48 hr) was 2 nM, the IC50 (L1210 leukemia cells; [7]) was 2.3 nM and the IC50 (L1210 leukemia cells; [8]) was 116 nM. It also gave an IC50 (L1210 leukemia cells; [9]) of 47 nM, an IC50 (L1210 leukemia cells; [10]) of 7.2 nM and an IC50 (L1210 cells; L1210, read-out: IC50 tritium assay) of 46 nM. The IC50 (LM(TK-) cells) was 1280 nM.
With CN(CCCCCl)P(=O)(OCC1=CC(=O)c2ccccc2C1=O)OC[C@H]1O[C@@H](n2cc(F)c(=O)[nH]c2=O)CC1O (some centres unmarked) [Compound 5, 5-Fluoro-2′-deoxyuridyl 2-(1,4-napthoquinonyl)methyl N-methyl-N-(4-chlorobutyl)phosphoramidate] the “inhibition of L1210 cell proliferation, in words” value (L1210 leukemia cells) was “highly potent inhibitors”, the “potency relative to compound 3” value (L1210 leukemia cells; L1210 cell proliferation) was “approximately 3 fold” and the IC50 (L1210 leukemia cells; [3]) was 44 nM. For the same molecule, the IC50 (L1210 leukemia cells; [4]) was 16 nM, the IC50 (L1210 leukemia cells; [5]) was 3.1 nM and the IC50 (L1210 leukemia cells; [6]) was 0.63 nM. The IC50 (L1210 leukemia cells; [7]) was 0.63 nM, the IC50 (L1210 leukemia cells; [8]) was 44 nM and the IC50 (L1210 leukemia cells; [9]) was 16 nM. For the same molecule, the IC50 (L1210 leukemia cells; [10]) was 3.1 nM.
O=c1[nH]cc(F)c(=O)[nH]1 [Compound 5-FU, reference compound] gave an IC50 (L1210 leukemia cells; drug exposure 2 h, final cell counts 48 hours after start of drug treatment, read-out: IC50) of 2500 nM, an IC50 (L1210 leukemia cells; drug exposure 2 hr, comparison of compound 5 with compound 3, read-out: L1210 IC50) of 2500 nM and an IC50 (L1210 leukemia cells; drug exposure 2 hr, read-out: L1210 IC50) of 2740 nM. The IC50 (L1210 leukemia cells; drug exposure 8 h, final cell counts 48 hours after start of drug treatment, read-out: IC50) was 1010 nM, the IC50 (L1210 leukemia cells; drug exposure 8 hr, comparison of compound 5 with compound 3, read-out: L1210 IC50) was 1010 nM and the IC50 (L1210 leukemia cells; drug exposure 8 hr, read-out: L1210 IC50) was 1390 nM. The IC50 (L1210 leukemia cells; drug exposure 24 h, final cell counts 48 hours after start of drug treatment, read-out: IC50) was 360 nM, the IC50 (L1210 leukemia cells; drug exposure 24 hr, comparison of compound 5 with compound 3, read-out: L1210 IC50) was 360 nM and the IC50 (L1210 leukemia cells; drug exposure 24 hr, read-out: L1210 IC50) was 495 nM. For the same molecule, the IC50 (L1210 leukemia cells; drug exposure 48 h, final cell counts 48 hours after start of drug treatment, read-out: IC50) was 200 nM, the IC50 (L1210 leukemia cells; drug exposure 48 hr, comparison of compound 5 with compound 3, read-out: L1210 IC50) was 200 nM and the IC50 (L1210 leukemia cells; drug exposure 48 hr, read-out: L1210 IC50) was 265 nM.
For COC1=CC(=O)c2c(cc(COP(=O)(OCC3OC(n4cc(F)c(=O)[nH]c4=O)CC3O)N(C)CCCCCl)n2C)C1=O (centres unmarked) [Compound 6, 5-Fluoro-2′-deoxyuridyl 2-(5-methoxy-N-methylindoloquinone)methyl N-methyl-N-(4-chlorobutyl)phosphoramidate], the IC50 (L1210 leukemia cells; [6]) was 1.6 nM, the IC50 (L1210 leukemia cells; [8]) was 34 nM and the IC50 (L1210 leukemia cells; [9]) was 48 nM. It also gave an IC50 (L1210 leukemia cells; [10]) of 4.8 nM.
Molecule CC(NC(=O)c1ccc(OP(=O)(O)O)cc1)c1ccc(OCC2CCCCC2)c(C(N)=O)c1 (centres unmarked) [Compound 12A] has a Kd (pp60src SH2 domain) of 5600 nM.
CC(NC(=O)c1ccc(OP(=O)(OCc2ccc([N+](=O)[O-])o2)N(C)CCCCCl)cc1)c1ccc(OCC2CCCCC2)c(C(N)=O)c1 (centres unmarked) [Compound 35] gave an IC50 [1] of 34100 nM.
CC(NC(=O)c1ccc(OP(=O)(OCC2=CC(=O)c3ccccc3C2=O)N(C)CCCCCl)cc1)c1ccc(OCC2CCCCC2)c(C(N)=O)c1 (centres unmarked) [Compound 37] gave an IC50 [1] of 4200 nM.
CC(=O)NC(Cc1ccc(OP(=O)(OCc2ccc([N+](=O)[O-])o2)N(C)CCCCCl)cc1)C(=O)NC(C)c1ccc(OCC2CCCCC2)c(C(N)=O)c1 (centres unmarked) [Compound 38] showed an IC50 [1] of 5600 nM.
CC(NC(=O)Cc1ccc(OP(=O)(OCc2ccc([N+](=O)[O-])o2)N(C)CCCCCl)cc1)c1ccc(OCC2CCCCC2)c(C(N)=O)c1 (centres unmarked) [Compound 40] showed an IC50 [1] of 3400 nM.
In the case of CC(NC(=O)c1ccc(NP(=O)(OCc2ccc([N+](=O)[O-])o2)N(C)CCCCCl)cc1)c1ccc(OCC2CCCCC2)c(C(N)=O)c1 (centres unmarked) [Compound 42], the IC50 ([1]; transfected J77 cells, drug 2 hours, then PMA/Ionomycin/Anti-CD3 for 6 hours) is reported as 15000 nM.
In the case of O=c1[nH]c(=O)n([C@H]2C[C@H](O)[C@@H](CO)O2)cc1F [FUdR, 5-Fluoro-2′-deoxyuridine, reference compound], the IC50 (LM cells; LM, drug 2 hours at 37° C., then [5-3H]dCyt 60 min) is reported as 59 nM, the IC50 (L1210 leukemia cells; Mus musculus, L1210, 48 h, drug exposure 48 h, final cell counts 48 hours after start of drug treatment, read-out: IC50) is reported as 0.64 nM and the IC50 (L1210 leukemia cells; Mus musculus, L1210, drug exposure 2 h, final cell counts 48 hours after start of drug treatment, read-out: IC50) is reported as 45 nM. It also gave an IC50 (L1210 leukemia cells; Mus musculus, L1210, drug exposure 8 h, final cell counts 48 hours after start of drug treatment, read-out: IC50) of 23 nM, an IC50 (L1210 leukemia cells; Mus musculus, L1210, drug exposure 24 h, final cell counts 48 hours after start of drug treatment, read-out: IC50) of 4.1 nM and an IC50 (L1210 cells; L1210, drug 2 hours at 37° C., then [5-3H]dCyt 60 min, read-out: IC50 tritium assay) of 8 nM. For the same molecule, the IC50 (LM(TK-) cells; LM(TK-), drug 2 hours at 37° C., then [5-3H]dCyt 60 min) was 3670 nM.
With Cc1cn([C@H]2C[C@H](O)[C@@H](COP(N)(=O)O)O2)c(=O)[nH]c1=O [thymidine phosphoramidate] the “time until the phosphoramidate anion resonance had disappeared (thymidine-5′-phosphate exclusive product)” value [2] was “ten”.

Reference: patent US6903081B2, “Phosphoramidates and methods therefor” (Purdue Research Foundation, priority 2000, dated 2005)
